Reference: publication PMC11148772, “Inhibition of protein translational machinery in triple-negative breast cancer as a promising therapeutic strategy” (Cell Reports Medicine, 2024)

Key:
[1] = test system: MDA-MB-231, MDA-MB-468 and MCF12A cells; assay: Global proteome profiling with pathway enrichment; format: cell-based, human; details: 1 μM, 12 h, TNBC cells vs vehicle
Procedure: MDA-MB-231, MDA-MB-468, and MCF12A cells were grown to 80% confluence and then treated with DMSO (vehicle control) or SU056 (1 μM) for 12 h. Cells were washed twice with phosphate-buffered saline (PBS), harvested by scaping, and centrifuged. Cells were lysed by vortexing in 100 mM triethylammonium bicarbonate (TEAB, Thermo Fisher Scientific) in 1% sodium dodecyl sulfate (SDS). The lysate was centrifuged, and the supernatant was retained. A bicinchoninic acid assay (BCA, Thermo Scientific, Rockville, IL) was used to measure protein concentration and 50 μg of protein per sample was subjected to disulfide bond reduction using 10 mM TCEP (Sigma Aldrich) for 1 h at 55°C. Cysteine resides were then alkylated with iodoacetamide (Sigma Aldrich) for 30 min at room temperature in the dark. […] All samples were analyzed in triplicate.
Using a Dionex Ultimate Rapid Separation Liquid Chromatography system (Thermo Fisher Scientific), a 3 μL injection of the combined TMT-labeled peptide solution was loaded onto a PepMap 100 C18 trap column (Thermo Fisher Scientific) at a rate of 5 μL/min for 10 min. […] The flow rate was set to 0.6 μL/min throughout the gradient and each sample was analyzed in triplicate. […]
Raw LC-MS/MS data was analyzed using MaxQuant[50] searching against the Swiss-Prot human reference proteome database (20,626 entries as of 2020). […]

4T1 lung metastasis = assay: Orthotopic 4T1 model, lung metastasis; format: in vivo, mouse; details: orthotopic 4T1, 50 mg/kg, lung metastatic nodules counted
From the text: Data S2. Effect of SU056 treatment on body weight, metastatic potential and pharmacokinetic profiling of SU056, related to Figure 2 and 3
Human, mouse and PDX models of TNBC were used for tumor xenograft studies. SU056 treatment was started when tumors reached around ~25-50 mm3 and continued until the experiment reached its 3-week endpoint. Body weight was monitored throughout the study to understand any change in dietary pattern. Body weights of A) MDA-MB-231, B) MDA-MB-468, C) 4T1, D) EMT6, E) CA1616-PDX-TNBC, F) CA1262-PDX-TNBC, G) MA2821-PDX-TNBC and H) SUTI151-PDX-TNBC over time. I) Tumor volume, J) Tumor weight and K) The bar graph represents lung metastatic nodules in 4T1 orthotopic models. L) Representative images of lungs at the end of the treatment cycle. M) Mice were treated with 20 mg/kg SU056 orally. Cmax (maximum serum concentration), Tmax (time to reach Cmax), and T1/2 (elimination half-life of compound). N) Human liver microsomes were used for the purpose of metabolic profiling.
Data are shown as mean ± SD. Error bars represent ± SD.
*p < 0.05, **p < 0.01, ***p < 0.001 and ****p < 0.0001. Significant difference compared with respective control by Student’s t test or one-way ANOVA followed by Dunnett’s test.

MDA-MB-468 cells = assay: Cell cycle analysis (PI, flow cytometry); format: cell-based, human
Procedure: (§1) TNBC cells (MDA-MB-231, MDA-MB-468, and SUM159) were seeded (40,000 cells per well) in 12 well plates and grown in regular conditions. The next day, cells were treated with DMSO (control) and indicated SU056 concentrations. At the end of each time point, cells were processed for PI staining as described earlier.[49] Synchronization of cells in G2/M phase was done using nocodazole (200 nM for 16 h) followed by SU056 treatment for 24 h. Cell cycle distribution was then analyzed by flow cytometry using a BD FACS Calibur (BD, USA).

MDA-MB-231 cells = assay: Cell cycle analysis (PI, flow cytometry); format: cell-based, human
Procedure: as §1

PDE4D2 = molecular target: T1, PDE4D2 (Homo sapiens, UniProt Q08499); assay: Enzyme assay (in vitro pharmacology); format: biochemical; details: 10 μM
T1 construct: purchased Eurofins Discovery
Procedure: (§2) The compound SU056 was tested for its radioligand binding and enzyme and uptake characteristics by Eurofins lab services (Eurofins discovery). The screening was performed at 10 μM of SU056. The binding was calculated as % inhibition of the binding of a radioactively labeled ligand specific to each target. The SU056 enzyme inhibition effect was determined as % inhibition of control enzyme activity.

COX2 = molecular target: T2, COX2 (Homo sapiens, UniProt P35354); assay: Enzyme assay (in vitro pharmacology); format: biochemical; details: 10 μM
T2 construct: purchased Eurofins Discovery
Procedure: as §2

[2] = nocodazole 200 nM 16 h, then SU056 24 h

T2 sequence (P35354 18-604): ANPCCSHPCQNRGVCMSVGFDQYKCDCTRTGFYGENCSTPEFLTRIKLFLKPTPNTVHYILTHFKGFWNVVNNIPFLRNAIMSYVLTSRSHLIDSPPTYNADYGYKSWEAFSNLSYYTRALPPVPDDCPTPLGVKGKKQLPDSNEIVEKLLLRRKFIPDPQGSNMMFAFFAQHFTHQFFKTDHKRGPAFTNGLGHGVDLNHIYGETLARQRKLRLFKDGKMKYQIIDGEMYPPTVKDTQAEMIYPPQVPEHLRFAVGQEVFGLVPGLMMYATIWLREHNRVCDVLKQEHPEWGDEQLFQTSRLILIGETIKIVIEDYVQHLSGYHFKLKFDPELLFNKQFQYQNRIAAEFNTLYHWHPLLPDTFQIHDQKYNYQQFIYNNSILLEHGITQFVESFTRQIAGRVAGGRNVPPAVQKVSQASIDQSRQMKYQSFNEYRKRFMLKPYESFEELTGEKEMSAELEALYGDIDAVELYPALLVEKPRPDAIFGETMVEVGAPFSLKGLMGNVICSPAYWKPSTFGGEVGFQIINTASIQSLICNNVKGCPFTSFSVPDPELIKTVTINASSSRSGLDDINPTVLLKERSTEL
T1 sequence (Q08499 303-809 limits assumed): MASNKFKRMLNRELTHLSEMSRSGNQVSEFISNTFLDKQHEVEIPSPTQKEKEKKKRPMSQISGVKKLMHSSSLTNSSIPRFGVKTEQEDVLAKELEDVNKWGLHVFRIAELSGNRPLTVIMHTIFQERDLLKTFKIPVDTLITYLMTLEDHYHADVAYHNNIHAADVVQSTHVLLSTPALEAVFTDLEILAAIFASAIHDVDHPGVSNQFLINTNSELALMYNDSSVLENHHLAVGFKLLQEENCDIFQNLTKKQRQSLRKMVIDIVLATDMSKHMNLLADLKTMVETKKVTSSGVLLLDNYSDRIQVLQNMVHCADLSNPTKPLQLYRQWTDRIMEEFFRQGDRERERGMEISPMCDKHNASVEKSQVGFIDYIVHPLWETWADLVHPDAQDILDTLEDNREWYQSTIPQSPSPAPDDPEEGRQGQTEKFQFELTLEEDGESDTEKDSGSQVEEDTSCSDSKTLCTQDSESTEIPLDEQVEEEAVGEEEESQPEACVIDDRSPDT

O=C1OCC2=C1C(c1cccc(F)c1)c1cc3c(cc1N2CCO)OCO3 (centres unmarked) [SU056, 9-(3-fluorophenyl)-5-(2-hydroxyethyl)-6,9-dihydro-[1,3]dioxolo[4,5-g]furo[3,4-b]quinolin-8(5H)-one]
protein translation processes (proteomic pathway analysis) [1]: modulated | decrease in lung metastasis compared to control (4T1 lung metastasis): 65.5% | cell cycle effect (MDA-MB-468 cells; 0.5, 1.0, and 2.0 μM, 12 and 24 h): G2/M phase arrest | cell death in nocodazole-synchronized cells (MDA-MB-468 cells; [2]): increased cell death | cells in G2/M phase (MDA-MB-231 cells; 24 h, control 12%): 34% | cell death in nocodazole-synchronized cells (MDA-MB-231 cells; [2]): increased cell death | enzyme activity (PDE4D2): inhibits | enzyme activity (COX2): inhibits
